Test system: LNCaP cells
Test: Gene expression in bicalutamide-treated vs untreated LNCaP cells (subtraction library, Gene Expression Micro-Array)
Type: cell-based
Settings: 25 hours

CC(O)(CS(=O)(=O)c1ccc(F)cc1)C(=O)Nc1ccc(C#N)c(C(F)(F)F)c1 (centres unmarked) [bicalutamide, Bicalutamide]
FOLD INCREASE IN mRNA: HU-K4 {470677} (SEQ ID NO 145, 100 nM bicalutamide): 3.6 fold
FOLD INCREASE IN mRNA: ESTs {126530} (SEQ ID NO 146, 100 nM bicalutamide): 3.5 fold
FOLD INCREASE IN mRNA: ESTs {429327} (SEQ ID NO 147, 100 nM bicalutamide): 3.5 fold
FOLD INCREASE IN mRNA: Vascular endothelial growth factor (VEGF (165)) {488697} (SEQ ID NO 148, 100 nM bicalutamide): 3.2 fold
FOLD INCREASE IN mRNA: ESTs {50914} (SEQ ID NO 149, 100 nM bicalutamide): 3.1 fold
FOLD INCREASE IN mRNA: ESTs {279847} (SEQ ID NO 150, 100 nM bicalutamide): 3.1 fold
FOLD INCREASE IN mRNA: ESTs {361548} (SEQ ID NO 151, 100 nM bicalutamide): 3.1 fold
FOLD INCREASE IN mRNA: ESTs {364730} (SEQ ID NO 152, 100 nM bicalutamide): 3.1 fold
FOLD INCREASE IN mRNA: ESTs {470212} (SEQ ID NO 153, 100 nM bicalutamide): 3.1 fold
FOLD INCREASE IN mRNA: ESTs {471210} (SEQ ID NO 154, 100 nM bicalutamide): 3.1 fold
FOLD INCREASE IN mRNA: ESTs {289300} (SEQ ID NO 155, 100 nM bicalutamide): 3 fold
FOLD INCREASE IN mRNA: ESTs {427725} (SEQ ID NO 156, 100 nM bicalutamide): 3 fold
FOLD INCREASE IN mRNA: ESTs {428217} (SEQ ID NO 157, 100 nM bicalutamide): 2.9 fold
FOLD INCREASE IN mRNA: rfp transforming protein {485268} (SEQ ID NO 158, 100 nM bicalutamide): 2.8 fold
FOLD INCREASE IN mRNA: ESTs {487420} (SEQ ID NO 159, 100 nM bicalutamide): 2.8 fold
FOLD INCREASE IN mRNA: 60S RIBOSOMAL PROTEIN L18A {509699} (SEQ ID NO 160, 100 nM bicalutamide): 2.8 fold
FOLD INCREASE IN mRNA: ESTs {31943} (SEQ ID NO 161, 100 nM bicalutamide): 2.7 fold
FOLD INCREASE IN mRNA: ESTs {376271} (SEQ ID NO 162, 100 nM bicalutamide): 2.7 fold
FOLD INCREASE IN mRNA: ESTs {469642} (SEQ ID NO 163, 100 nM bicalutamide): 2.7 fold
FOLD INCREASE IN mRNA: ESTs {471826} (SEQ ID NO 164, 100 nM bicalutamide): 2.7 fold
FOLD INCREASE IN mRNA: KIAA0262 {485008} (SEQ ID NO 165, 100 nM bicalutamide): 2.7 fold
FOLD INCREASE IN mRNA: ESTs {292082} (SEQ ID NO 166, 100 nM bicalutamide): 2.6 fold
FOLD INCREASE IN mRNA: ESTs {365557} (SEQ ID NO 167, 100 nM bicalutamide): 2.6 fold
FOLD INCREASE IN mRNA: Immunogloblin light chain (lambda) {119218} (SEQ ID NO 168, 100 nM bicalutamide): 2.5 fold
FOLD INCREASE IN mRNA: ELP-1 {147979} (SEQ ID NO 169, 100 nM bicalutamide): 2.5 fold
FOLD INCREASE IN mRNA: TRAMP protein {149355} (SEQ ID NO 170, 100 nM bicalutamide): 2.5 fold
FOLD INCREASE IN mRNA: ESTs {294078} (SEQ ID NO 171, 100 nM bicalutamide): 2.5 fold
FOLD INCREASE IN mRNA: ESTs {291005} (SEQ ID NO 172, 100 nM bicalutamide): 2.5 fold
FOLD INCREASE IN mRNA: ESTs {365907} (SEQ ID NO 173, 100 nM bicalutamide): 2.5 fold
FOLD INCREASE IN mRNA: ESTs {427801} (SEQ ID NO 174, 100 nM bicalutamide): 2.5 fold
FOLD INCREASE IN mRNA: ESTs {469515} (SEQ ID NO 175, 100 nM bicalutamide): 2.5 fold
FOLD INCREASE IN mRNA: Tral mRNA for human homologue of murine tumor rejection antigen gp96 {509486} (SEQ ID NO 176, 100 nM bicalutamide): 2.5 fold
FOLD INCREASE IN mRNA: Biotin-[propionyl-CoA-carboxylase (ATP-hydrolysing)] {176590} (SEQ ID NO 177, 100 nM bicalutamide): 2.4 fold
FOLD INCREASE IN mRNA: Tral mRNA for human homologue of murine tumor rejection antigen gp96 {242829} (SEQ ID NO 178, 100 nM bicalutamide): 2.4 fold
FOLD INCREASE IN mRNA: Cancellous bone osteoblast mRNA for GS3786 {486005} (SEQ ID NO 179, 100 nM bicalutamide): 2.4 fold
FOLD INCREASE IN mRNA: ESTs {509583} (SEQ ID NO 180, 100 nM bicalutamide): 2.4 fold
FOLD INCREASE IN mRNA: ESTs {44551} (SEQ ID NO 181, 100 nM bicalutamide): 2.3 fold
FOLD INCREASE IN mRNA: ESTs {245853} (SEQ ID NO 182, 100 nM bicalutamide): 2.3 fold
FOLD INCREASE IN mRNA: ESTs {306075} (SEQ ID NO 183, 100 nM bicalutamide): 2.3 fold
FOLD INCREASE IN mRNA: ESTs {322143} (SEQ ID NO 184, 100 nM bicalutamide): 2.3 fold
FOLD INCREASE IN mRNA: ESTs {322749} (SEQ ID NO 185, 100 nM bicalutamide): 2.3 fold
FOLD INCREASE IN mRNA: ESTs {359877} (SEQ ID NO 186, 100 nM bicalutamide): 2.3 fold
FOLD INCREASE IN mRNA: ESTs {360446} (SEQ ID NO 187, 100 nM bicalutamide): 2.3 fold
FOLD INCREASE IN mRNA: ESTs {360789} (SEQ ID NO 188, 100 nM bicalutamide): 2.3 fold
FOLD INCREASE IN mRNA: Protein tyrosine kinase t-Rorl {418257} (SEQ ID NO 189, 100 nM bicalutamide): 2.3 fold
FOLD INCREASE IN mRNA: ESTs {486712} (SEQ ID NO 190, 100 nM bicalutamide): 2.3 fold
FOLD INCREASE IN mRNA: ESTs {489106} (SEQ ID NO 191, 100 nM bicalutamide): 2.3 fold

Reference: US6506607B1, “Methods and compositions for the identification and assessment of prostate cancer therapies and the diagnosis of prostate cancer” (Millennium Pharmaceuticals, Inc., priority 1997, dated 2003)
